# Reference: PubChem BioAssay AID2060333 (Molecular Pharmacology Branch, DTP, NCI, 2025)
# Where “and” joins values, the source holds several entries; their conditions need not be identical. Equal entries are not always repeated.
# System: 845751-090-R-J2-PDC tumor spheroid viability
# Assay: Anticancer human tumor 845751-090-R-J2-PDC patient-derived head and neck squamous carcinoma cell line growth inhibition [IpAb]
# Conditions: spheroids with HUVEC and MSC; for viability, T/C: stronger effect = lower value
# In short: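 Multi-cell spheroids of 60% tumour cells, 25% HUVEC and 15% MSC in ultra-low-attachment U-bottom wells, treated with agents combined with ipatasertib or abemaciclib. Half-log ranges top out near clinical Cmax, or 10 microM when Cmax is unknown.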
# [1] = curve of first compound, second compound 0.01 µM
# [2] = curve of first compound, second compound 0.0316 µM
# [3] = curve of first compound, second compound 0.1 µM
# [4] = curve of first compound, second compound 0.316 µM
# [5] = curve of first compound, second compound 1 µM
# [6] = second compound 0.01 µM, first compound 0.0316 µM
# [7] = second compound 0.01 µM, first compound 0.1 µM
# [8] = second compound 0.01 µM, first compound 0.316 µM
# [9] = second compound 0.01 µM, first compound 1 µM
# [10] = second compound 0.01 µM, first compound 3.16 µM
# [11] = second compound 0.01 µM, first compound 10 µM
# [12] = second compound 0.0316 µM, first compound 0.0316 µM
# [13] = second compound 0.0316 µM, first compound 0.1 µM
# [14] = second compound 0.0316 µM, first compound 0.316 µM
# [15] = second compound 0.0316 µM, first compound 1 µM
# [16] = second compound 0.0316 µM, first compound 3.16 µM
# [17] = second compound 0.0316 µM, first compound 10 µM
# [18] = second compound 0.1 µM, first compound 0.0316 µM
# [19] = second compound 0.1 µM, first compound 0.1 µM
# [20] = second compound 0.1 µM, first compound 0.316 µM
# [21] = second compound 0.1 µM, first compound 1 µM
# [22] = second compound 0.1 µM, first compound 3.16 µM
# [23] = second compound 0.1 µM, first compound 10 µM
# [24] = second compound 0.316 µM, first compound 0.0316 µM
# [25] = second compound 0.316 µM, first compound 0.1 µM
# [26] = second compound 0.316 µM, first compound 0.316 µM
# [27] = second compound 0.316 µM, first compound 1 µM
# [28] = second compound 0.316 µM, first compound 3.16 µM
# [29] = second compound 0.316 µM, first compound 10 µM
# [30] = second compound 1 µM, first compound 0.0316 µM
# [31] = second compound 1 µM, first compound 0.1 µM
# [32] = second compound 1 µM, first compound 0.316 µM
# [33] = second compound 1 µM, first compound 1 µM
# [34] = second compound 1 µM, first compound 3.16 µM
# [35] = second compound 1 µM, first compound 10 µM
# 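Note: spheroids exposed to compounds for 7 days before readout.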
# 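Throughout, for viability, T/C: CTG3D luminescence normalised so that 100% = DMSO vehicle control.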
SMILES,IC50 [1] [nM],IC50 [2] [nM],IC50 [3] [nM],IC50 [4] [nM],IC50 [5] [nM],"viability, T/C [6] [%]","viability, T/C [7] [%]","viability, T/C [8] [%]","viability, T/C [9] [%]","viability, T/C [10] [%]","viability, T/C [11] [%]","viability, T/C [12] [%]","viability, T/C [13] [%]","viability, T/C [14] [%]","viability, T/C [18] [%]","viability, T/C [19] [%]","viability, T/C [24] [%]","viability, T/C [25] [%]","viability, T/C [30] [%]","viability, T/C [31] [%]",further results
C=CC(=O)N1CCN(c2nc(=O)n(-c3c(C)ccnc3C(C)C)c3nc(-c4c(O)cccc4F)c(F)cc23)C(C)C1 (configuration not stated) + CCN1CCN(Cc2ccc(Nc3ncc(F)c(-c4cc(F)c5nc(C)n(C(C)C)c5c4)n3)nc2)CC1,5850,2250,1690,1870,2250,95.2,96.3,102,82.3,53.7,46.9,64,84.3,70.9,67.2,115,61.5,67.9,62.6,62.4,"viability, T/C [15]: 66%; viability, T/C [16]: 43.3%; viability, T/C [17]: 31.7%; viability, T/C [20]: 74.6%; viability, T/C [21]: 56.1%; viability, T/C [22]: 46%; viability, T/C [23]: 27.2%; viability, T/C [26]: 72.5%; viability, T/C [27]: 55.7%; viability, T/C [28]: 43%; viability, T/C [29]: 16.9%; viability, T/C [32]: 72.2%; viability, T/C [33]: 59.9%; viability, T/C [34]: 45.4%; viability, T/C [35]: 28.4%"
CCCS(=O)(=O)Nc1ccc(F)c(C(=O)c2c[nH]c3ncc(-c4ccc(Cl)cc4)cc23)c1F + CCN1CCN(Cc2ccc(Nc3ncc(F)c(-c4cc(F)c5nc(C)n(C(C)C)c5c4)n3)nc2)CC1,590,681,454,582,907,95,70.8,52.4,50.7,35,24.7,86.4,64.9,66.6,65,60.2,74.2,65.7,81.5,81.2,"viability, T/C [15]: 43.4%; viability, T/C [16]: 30.9%; viability, T/C [17]: 20.5%; viability, T/C [20]: 58.8%; viability, T/C [21]: 30.9%; viability, T/C [22]: 23.2%; viability, T/C [23]: 29.5%; viability, T/C [26]: 63.4%; viability, T/C [27]: 38.6%; viability, T/C [28]: 28.6%; viability, T/C [29]: 23%; viability, T/C [32]: 70.3%; viability, T/C [33]: 47.4%; viability, T/C [34]: 38.1%; viability, T/C [35]: 32.1%"
CC1(C)CCC(CN2CCN(c3ccc(C(=O)NS(=O)(=O)c4ccc(NCC5CCOCC5)c([N+](=O)[O-])c4)c(Oc4cnc5[nH]ccc5c4)c3)CC2)=C(c2ccc(Cl)cc2)C1 + CCN1CCN(Cc2ccc(Nc3ncc(F)c(-c4cc(F)c5nc(C)n(C(C)C)c5c4)n3)nc2)CC1,7510,7030,6370,6410,6750,104,119,103,91.3,138,29.8,136,90.5,80.8,75,72.2,74.6,108,106,107,"viability, T/C [15]: 93.6%; viability, T/C [16]: 137%; viability, T/C [17]: 24.4%; viability, T/C [20]: 94.6%; viability, T/C [21]: 104%; viability, T/C [22]: 117%; viability, T/C [23]: 22.7%; viability, T/C [26]: 92.3%; viability, T/C [27]: 85.3%; viability, T/C [28]: 115%; viability, T/C [29]: 21.6%; viability, T/C [32]: 102%; viability, T/C [33]: 115%; viability, T/C [34]: 123%; viability, T/C [35]: 18.5%"
Cn1ncnc1[C@H]1c2n[nH]c(=O)c3cc(F)cc(c23)N[C@@H]1c1ccc(F)cc1 + CCN1CCN(Cc2ccc(Nc3ncc(F)c(-c4cc(F)c5nc(C)n(C(C)C)c5c4)n3)nc2)CC1,> 100,73.1,> 100,85.4,19.6,92.1,70.9,–,–,–,–,63.5,45,–,75.7,59.9,57.8,49.3,46.4,37.1,"viability, T/C (second compound 0.01 µM, first compound 0.000316 µM): 71.6%; viability, T/C (second compound 0.01 µM, first compound 0.001 µM): 94%; viability, T/C (second compound 0.01 µM, first compound 0.00316 µM): 91.8%; viability, T/C (second compound 0.01 µM, first compound 0.01 µM): 83.1%; viability, T/C (second compound 0.0316 µM, first compound 0.000316 µM): 74.7%; viability, T/C (second compound 0.0316 µM, first compound 0.001 µM): 81.8%; viability, T/C (second compound 0.0316 µM, first compound 0.00316 µM): 69.7%; viability, T/C (second compound 0.0316 µM, first compound 0.01 µM): 78.8%; viability, T/C (second compound 0.1 µM, first compound 0.000316 µM): 71.9%; viability, T/C (second compound 0.1 µM, first compound 0.001 µM): 66.3%; viability, T/C (second compound 0.1 µM, first compound 0.00316 µM): 71.3%; viability, T/C (second compound 0.1 µM, first compound 0.01 µM): 69.7%; viability, T/C (second compound 0.316 µM, first compound 0.000316 µM): 63.6%; viability, T/C (second compound 0.316 µM, first compound 0.001 µM): 69.4%; viability, T/C (second compound 0.316 µM, first compound 0.00316 µM): 72.8%; viability, T/C (second compound 0.316 µM, first compound 0.01 µM): 55%; viability, T/C (second compound 1 µM, first compound 0.000316 µM): 58.8%; viability, T/C (second compound 1 µM, first compound 0.001 µM): 84.5%; viability, T/C (second compound 1 µM, first compound 0.00316 µM): 57.7%; viability, T/C (second compound 1 µM, first compound 0.01 µM): 57.1%"
Cn1ncc(Cl)c1-c1cc(C(=O)NC(CN)Cc2cccc(F)c2)sc1Cl (configuration not stated),–,–,–,–,–,–,–,–,–,–,–,–,–,–,–,–,–,–,–,–,"viability, T/C (compound 0.0316 µM): 105% and 86.6%; viability, T/C (compound 0.1 µM): 76.1% and 51.8%; viability, T/C (compound 0.316 µM): 52.6% and 32.5%; viability, T/C (compound 1 µM): 38.7% and 29.1%; viability, T/C (compound 3.16 µM): 16% and 10.7%; viability, T/C (compound 10 µM): 1.14% and 1.09%; IC50 (curve of compound): 466 nM and 139 nM"
